Assays:
Assay in all cases: relative viability (nuclei count vs DMSO), 5 days (fraction); higher = more cells survive
[1] = compound: C1=CC2=NC=CN=C2C=C1/C=C/3\C(=O)NC(=O)S3 + COc1cc2c(Oc3ccc(NC(=O)C4(C(=O)Nc5ccc(F)cc5)CC4)cc3F)ccnc2cc1OCCCN1CCOCC1 [Foretinib] (partner 0.25 µM)
How it was run: (§1)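 Lung cancer cell lines, seeded in 1536-well plates, were treated the following day by pin tool with a single drug or with five library-drug doses (not always all listed) in √10 steps on top of a fixed anchor-drug dose. Cells were fixed and nuclei stained in one step after 5 days, and nuclei were counted. Relative viability is the nuclei count for treated wells divided by that for vehicle wells, reported as medians of duplicate plates.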

BGJ398 + OSI-027 = compound: CCN1CCN(c2ccc(Nc3cc(N(C)C(=O)Nc4c(Cl)c(OC)cc(OC)c4Cl)ncn3)cc2)CC1 [BGJ398] + COc1cccc2cc(-c3nc([C@H]4CC[C@H](C(=O)O)CC4)n4ncnc(N)c34)[nH]c12 [OSI-027] (partner 0.5 µM)
How it was run: as §1

BGJ398 + Lapatinib = compound: CCN1CCN(c2ccc(Nc3cc(N(C)C(=O)Nc4c(Cl)c(OC)cc(OC)c4Cl)ncn3)cc2)CC1 [BGJ398] + CS(=O)(=O)CCNCc1ccc(-c2ccc3ncnc(Nc4ccc(OCc5cccc(F)c5)c(Cl)c4)c3c2)o1 [Lapatinib] (partner 2 µM)
How it was run: as §1

BGJ398 + Pemetrexed = compound: CCN1CCN(c2ccc(Nc3cc(N(C)C(=O)Nc4c(Cl)c(OC)cc(OC)c4Cl)ncn3)cc2)CC1 [BGJ398] + Nc1nc2[nH]cc(CCc3ccc(C(=O)N[C@@H](CCC(=O)O)C(=O)O)cc3)c2c(=O)[nH]1 [Pemetrexed] (partner 0.2 µM)
How it was run: as §1

Cell Line | relative viability ([1]; first compound 0.02 µM) | relative viability ([1]; first compound 0.06325 µM) | relative viability ([1]; first compound 0.2 µM) | relative viability ([1]; first compound 0.6325 µM) | relative viability ([1]; first compound 2 µM) | relative viability (BGJ398 + OSI-027; first compound 0.01 µM) | relative viability (BGJ398 + OSI-027; first compound 0.1 µM) | relative viability (BGJ398 + OSI-027; first compound 0.3162 µM) | relative viability (BGJ398 + OSI-027; first compound 1 µM) | relative viability (BGJ398 + Lapatinib; first compound 0.01 µM) | relative viability (BGJ398 + Lapatinib; first compound 0.03162 µM) | relative viability (BGJ398 + Lapatinib; first compound 0.1 µM) | relative viability (BGJ398 + Lapatinib; first compound 0.3162 µM) | relative viability (BGJ398 + Lapatinib; first compound 1 µM) | relative viability (BGJ398 + Pemetrexed; first compound 0.01 µM) | relative viability (BGJ398 + Pemetrexed; first compound 0.03162 µM) | relative viability (BGJ398 + Pemetrexed; first compound 0.1 µM) | relative viability (BGJ398 + Pemetrexed; first compound 0.3162 µM) | relative viability (BGJ398 + Pemetrexed; first compound 1 µM) | relative viability (BGJ398 + OSI-027; first compound 0.03162 µM)
NCI-H1650 | 1 | 0.956 | 1.07 | 1.13 | 1.08 | 0.487 | 0.56 | 0.273 | 0.396 | 0.608 | 0.828 | 0.367 | 0.32 | 0.234 | 0.391 | 0.361 | 0.354 | 0.295 | 0.319 | 
NCI-H1651 | 0.774 | 0.734 | 0.911 | 0.796 | 0.75 | 0.562 | 0.728 | 0.635 | 0.709 | 0.796 | 0.897 | 0.962 | 0.693 | 0.676 | 0.544 | 0.542 | 0.615 | 0.588 | 0.423 | 0.661
NCI-H1666 | 1.03 | 0.879 | 0.986 | 0.909 | 0.932 | 0.859 | 0.862 | 0.886 | 0.764 | 0.656 | 0.704 | 0.508 | 0.7 | 0.255 | 0.919 | 0.935 | 0.8 | 0.929 | 0.737 | 0.834
NCI-H1734 | 0.891 | 0.674 | 0.808 | 0.844 | 0.681 | 0.589 | 0.675 | 0.579 | 0.702 | 0.992 | 1.03 | 1.11 | 0.961 | 1.06 | 0.405 | 0.403 | 0.405 | 0.378 | 0.415 | 0.645
NCI-H1755 | 0.807 | 0.942 | 0.923 | 0.897 | 0.864 | 0.598 | 0.749 | 0.779 | 0.698 | 1.01 | 1.04 | 1.05 | 1.01 | 1.01 | 0.438 | 0.44 | 0.428 | 0.443 | 0.427 | 0.852
NCI-H1793 | 0.633 | 0.601 | 0.721 | 0.634 | 0.642 | 0.326 | 0.241 | 0.229 | 0.243 | 0.652 |  | 0.564 | 0.402 | 0.427 | 0.942 | 0.526 | 0.809 | 0.569 | 0.454 | 0.309
NCI-H1915 | 1.11 | 1.12 | 1.15 | 1.09 | 1.04 | 0.59 | 0.62 | 0.582 | 0.687 | 0.976 | 0.977 | 0.988 | 1.01 | 0.928 | 0.511 | 0.524 | 0.571 | 0.458 | 0.521 | 0.614
NCI-H1944 | 0.814 | 0.78 | 0.885 | 0.795 | 0.903 | 0.364 | 0.436 | 0.388 | 0.329 | 0.784 | 0.813 | 0.84 | 0.78 | 0.603 | 0.652 | 0.635 | 0.502 | 0.495 | 0.606 | 0.425
NCI-H1975 | 0.904 | 1.03 | 0.992 | 0.866 | 0.84 | 0.71 | 0.736 | 0.629 | 0.646 | 0.915 | 0.903 | 0.859 | 0.899 | 0.785 | 0.274 | 0.309 | 0.301 | 0.291 | 0.298 | 0.923
NCI-H1993 | 0.694 | 0.817 | 0.72 | 0.748 | 0.578 | 0.525 | 0.564 | 0.507 | 0.649 | 0.8 | 0.825 | 0.87 | 0.935 | 0.746 | 0.559 | 0.543 | 0.575 | 0.572 | 0.549 | 0.535
NCI-H2009 | 1.21 | 1.22 | 1.3 | 1.28 | 1.12 | 0.553 | 0.653 | 0.633 | 0.685 | 0.863 | 0.966 | 0.965 | 0.924 | 0.955 | 1.02 | 1.04 | 1.04 | 1.11 | 1.09 | 0.73
NCI-H2023 | 0.714 | 0.832 | 0.765 | 0.781 | 0.51 | 0.364 | 0.46 | 0.41 | 0.395 | 0.766 | 0.872 | 0.743 | 0.894 | 0.742 | 0.279 | 0.227 | 0.248 | 0.252 | 0.242 | 0.462
NCI-H2085 | 0.966 | 1.09 | 0.902 | 1.03 | 0.882 | 0.706 | 0.84 | 0.663 | 0.807 | 0.744 | 0.784 | 0.802 | 0.677 | 0.663 | 0.927 | 0.845 | 0.885 | 0.978 | 1.04 | 0.673
NCI-H2087 | 1.12 | 0.974 | 0.992 | 0.975 | 0.931 | 0.359 | 0.587 | 0.63 | 0.546 | 0.951 | 0.975 | 1.09 | 1.17 | 0.885 | 0.644 | 0.606 | 0.671 | 0.699 | 0.678 | 0.639
NCI-H2126 | 0.917 | 0.987 | 1.2 | 1.11 | 0.745 | 0.864 | 0.664 | 0.721 | 0.687 | 0.808 | 0.765 | 0.764 | 0.785 | 0.678 | 0.724 | 0.717 | 0.689 | 0.674 | 0.684 | 0.705
NCI-H2170 | 0.962 | 1.12 | 1.05 | 1.01 | 1.02 | 0.742 | 0.706 | 0.619 | 0.707 | 0.289 | 0.197 | 0.256 | 0.268 | 0.264 | 0.273 | 0.254 | 0.283 | 0.276 | 0.247 | 0.606

— the supplement of paper PMC10307832
